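These data come from cells grown in 96-well plates and exposed to compound for 48 hours at five concentrations. GI50 is the concentration that inhibits growth by half.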 Active and inactive are the calls of the source. Rule as the data show it: active = GI50 up to about 1.1 µM and inactive = higher. Where only a bound is given, the exact number is not on record here.

What all share (experiment): NCI-60 cell line screen, 48 h
The subject of experiment [1] is CAKI-1.
Experiment [2] deals with DMS-114.
The test system of experiment [3] is EKVX.
Experiment [4] deals with HCT-116.
For experiment [5], the system named is HOP-62.
The test system of experiment [6] is IGROV-1.
Experiment [7] relates to M14.
Experiment [8] concerns NCI-H226.
For experiment [9], the system named is NCI-H522.
Experiment [10] relates to RPMI-8226.
For experiment [11], the system named is SK-MEL-28.
In experiment [12] the test system is SK-MEL-5.
Experiment [13] relates to SK-OV-3.
Experiment [14] deals with SN12C.
Experiment [15] relates to SR.
In experiment [16] the test system is SW-620.
For experiment [17], the system named is TK-10.
Experiment [18] deals with UACC-62.
In experiment [19] the test system is HCT-15.

Turning to `CC1CCC(=O)NCCCCC(=O)N1` (stereo not given), the GI50 in experiment [1], in [2], in experiment [3], in experiment [4], in experiment [5] and in experiment [6] was > 100 µM (inactive) throughout. Moreover, the GI50 in [7], in [8], in experiment [9], in experiment [10], in experiment [11] and in [12] was > 100 µM (inactive) each time. Also, the GI50 in [13], in [14], in [15], in [16], in experiment [17] and in experiment [18] was > 100 µM (inactive) each time.
As for `CCOP(=O)(C/C(O)=C1\C(=O)C(CCCCNC(=O)OC(C)(C)C)N(Cc2ccccc2)C1=O)OCC` (stereo not given), the GI50 in [1], in experiment [2], in experiment [3], in experiment [4], in experiment [5] and in [6] was > 100 µM (inactive) in each case. Moreover, the GI50 in [7] is > 100 µM (inactive); in [8] it was > 100 µM (inactive); in [9] it was 1.12 µM (inactive); in experiment [10], > 100 µM (inactive); in [11] it was > 100 µM (inactive); in experiment [12], > 100 µM (inactive). Besides, the GI50 in experiment [13] was > 100 µM (inactive); in experiment [14] it was > 100 µM (inactive); in [15] it was 69.2 µM (inactive); in experiment [17], > 100 µM (inactive); in experiment [18], > 100 µM (inactive).
In the case of `COC(=O)CCC(=O)Nc1cc(C)ccc1C`, the GI50 in experiment [1], in experiment [2], in [3], in experiment [4], in experiment [5] and in [6] was > 100 µM (inactive) each time. For the same molecule, the GI50 in [7], in [8], in experiment [9], in [10], in [11] and in [12] was > 100 µM (inactive) throughout. The GI50 in [13], in experiment [14], in [16], in experiment [17] and in [18] was > 100 µM (inactive) throughout.
On to `CCCCNC1=C(C(=O)OCC)/C(=N/NC(=O)c2ccccc2O)CO1`, for which the GI50 in experiment [1] was 8.53 µM (inactive); in experiment [2], 36.7 µM (inactive); in experiment [3], > 100 µM (inactive); in [4], 6.68 µM (inactive); in experiment [5], 17.6 µM (inactive); in [6], 8.99 µM (inactive). Besides, the GI50 in [7] is 37.2 µM (inactive); in [8] it was 18.5 µM (inactive); in experiment [9], 13.4 µM (inactive); in experiment [10], 86.7 µM (inactive); in experiment [11] it was 18.5 µM (inactive); in [12] it was 29.2 µM (inactive). The GI50 in experiment [13] is > 100 µM (inactive); in [14] it was 61 µM (inactive); in [16] it was 39 µM (inactive); in [17], 98.4 µM (inactive); in experiment [18] it was 13.1 µM (inactive).
Regarding `CCC1(O)CC(c2ccccc2)N(C)C(c2ccccc2)C1` (stereo not given), the GI50 in experiment [1] is > 100 µM (inactive); in experiment [2], > 100 µM (inactive); in experiment [3] it was > 100 µM (inactive); in [4], 86.9 µM (inactive); in [19], more than 100 µM; in experiment [5], > 100 µM (inactive). Also, the GI50 in experiment [6] is > 100 µM (inactive); in experiment [7] it was > 100 µM (inactive); in experiment [8], > 100 µM (inactive); in experiment [9], 94 µM (inactive); in experiment [11], > 100 µM (inactive); in experiment [12], > 100 µM (inactive). Further, the GI50 in experiment [13], in experiment [14], in experiment [16], in [17] and in experiment [18] was > 100 µM (inactive) in each case.
As to `O=C(O)c1c[nH]cc1C(=O)O`, the GI50 is > 100 µM (inactive) in experiment [1]; > 100 µM (inactive) in experiment [2]; > 100 µM (inactive) in experiment [3]; > 100 µM (inactive) in experiment [4]; more than 100 µM in experiment [19]; > 100 µM (inactive) in experiment [5]. The GI50 in [6], in experiment [7], in [8], in experiment [9], in experiment [10] and in experiment [12] was > 100 µM (inactive) throughout. Also, the GI50 in experiment [13], in experiment [14], in [15], in experiment [16], in experiment [17] and in [18] was > 100 µM (inactive) in each case.
Take `Cc1cc2c(=O)n(-c3ccc(F)cc3)c(C)nc2c(C(=O)O)c1C`: the GI50 in experiment [1] is > 100 µM (inactive); in experiment [2], > 100 µM (inactive); in experiment [3] it was > 100 µM (inactive); in [4], > 100 µM (inactive); in experiment [19] it was more than 100 µM; in [5] it was > 100 µM (inactive). Besides, the GI50 in experiment [6], in experiment [7], in [8], in [10], in experiment [11] and in [12] was > 100 µM (inactive) throughout. Besides, the GI50 in [13], in [14], in [15], in experiment [16], in [17] and in [18] was > 100 µM (inactive) in each case.
Regarding `CCN(CCCl)CCNc1c2ccccc2nc2ccc(OC)cc12`, the GI50 was 0.361 µM (active) in experiment [1]; 0.675 µM (active) in [2]; 1.27 µM (inactive) in experiment [3]; 0.236 µM (active) in [4]; 0.731 µM in experiment [19]; 1.12 µM (active) in [5]. The GI50 in experiment [6] was 0.463 µM (active); in experiment [7], 1.18 µM (inactive); in experiment [8], 0.6 µM (active); in [9] it was 0.33 µM (active); in [10], 0.0977 µM (active); in experiment [11] it was 1.52 µM (inactive). Besides, the GI50 in [12] was 1.12 µM (active); in experiment [13], 1.35 µM (inactive); in experiment [14] it was 0.548 µM (active); in experiment [16], 0.132 µM (active); in experiment [17] it was 1.58 µM (inactive); in [18], 0.551 µM (active).

Values taken from ChEMBL document CHEMBL1201862, “PubChem BioAssay data set” (2004).
